In patent US20110256241A1, “METHODS AND COMPOSITIONS FOR THE TREATMENT OF CANCER” (TRASLATIONAL CANCER DRUGS PHARMA, S.L., priority 2008, published 2011):

Legend:
[1] = test system: H82 cells; assay: Cell proliferation assay (MTT); format: cell-based, human
Protocol: (§1) All cell lines used in this study were maintained under standard conditions of temperature (37° C.), humidity (95%), and carbon dioxide (5%). Human primary bronchial epithelial cells, NHBE (BEC) (Cambrex, CC-2541) were grown in BEGM (Bronchial Epithelial cell growth media) BulletKit (Cambrex, CC-3170). Human primary mammary epithelial cells, HMEC (Clonetics, CC-2551) were grown in MEBM medium supplemented with a bullet kit (Clonetics, CC-3150). Epithelial non-small lung cancer cells H460 and H1299, and small cell lung cancer cell lines H510 and H82 were maintained in RPMI supplemented with 10% Fetal Bovine Serum (FBS) (Life Technologies, Grand Island, N.Y.).
(§2) Cells were seeded on 96-well plates (BD, Falcon, Bioscience, San Jose, Calif., USA) at a density of 6000 cells/well, and incubated for 24 h under standard conditions. […] Absorbance is read at 595 nm in a VersaMax Microplate Reader (Molecular Devices, Sunnyvale, Calif., USA). For sensitization with acid ceramidase inhibitor, cells were pre-treated 4 hours with the correspondent IC50 for NOE before treatment with ChoK inhibitors. NOE (N-Oleoyl ethanolamine) was obtained from Calbiochem (La Jolla, Calif., USA).

[2] = test system: H510 cells; assay: Cell proliferation assay (MTT); format: cell-based, human
Protocol: as §1, §2

[3] = test system: H1299 cells; assay: Cell proliferation assay (MTT); format: cell-based, human
Protocol: as §1, §2

[4] = test system: H460 cells; assay: Affymetrix gene expression analysis of 5-FU metabolization pathway; format: cell-based, human; design: key to RRM2 (Ribonucleotide Reductase) gene expression / TYMS (Thymidylate synthetase) gene expression / DUT (Deoxyuridine triphosphatase) gene expression: Signal Log Ratio, base 2 (1.0 = 2-fold increase, 0 = no change)
Protocol: The RNAs from the biopsies selected were isolated for microarrays and QT-PCR, using RNeasy Mini Kit (QIAGEN, Hilden, Germany) following the instructions of the manufactures. Samples were prepared and the array hybridized according to the Affymetrix GeneChip Expression Analysis Technical Manual. Hybridization to Affymetrix U133plus2 GeneChips (54,614 probe sets, representing 47,000 transcripts), staining, washing and scanning procedures were carried out at the Genomic Facility in the National Center of Biotechnology (Madrid, Spain) as described in www.affymetrix.com (Affymetrix, Santa Clara, Calif.). The Signal Log Ratio estimates the magnitude and direction of change of a transcript. The log scale used is base 2, thus a Signal Log Ratio of 1.0 indicates an increase of the transcript level by 2 fold and −1.0 indicates a decrease by 2 fold. A Signal Log Ratio of zero would indicate no change.
With the aim of further investigating the mechanism of ChoKIs sensitization to the antitumoral effect of 5-FU, a gene expression analysis of the 5-FU-metabolisation pathway was performed in H460 cells treated at different times with MN58b and RSM-932A using affymetrix technology.

[5] = test system: H460 xenografts; assay: NSCLC xenografts, in vivo tumor growth inhibition; conditions: FIG. 7A, single agents
Protocol: Indicated cells were resuspended in DMEM just before inoculation (10^6 cells/0.1 ml), and injected subcutaneously in nu/nu immunosuppressed mice. Mice were kept under standard laboratory conditions according to the guidelines of the Spanish Government. When tumours reached a mean volume of 0.1 cm^3, mice were randomized to control and treated groups. Treatments with the antitumoral agents (and vehicle for control mice) were performed i.p. with following the indicated schedules. Tumors were monitored three times a week by measuring the major (D) and minor (d) diameters, and tumour volume was calculated by V=(D*d^2)/2. Statistical analysis of significant changes in tumour growth was calculated using SPSS software v. 13.0.

[6] = test system: HT29 colon cancer cells; assay: QT-PCR validation of 5-FU metabolization pathway genes; format: cell-based, human; design: key: DR (Down-regulation); UR (Up-regulation)
Protocol: (§3) 1 μg of RNA was used to generate cDNA using High-Capacity cDNA Archive Kit (Applied Biosystems), and quantitative real-time PCR was carried out in triplicate using the ABI PRISM 7700 Sequence Detector (Applied Biosystems). GAPDH and 18S ribosomal mRNA were amplified as internal controls. Probes used for amplification were from Applied Biosystems as Taqman Gene Expression Assays (ASAH1: HS00602774—M1 Taqman Probe, ASAH2: HS00184096_M1 Taqman Probe and ASAH3: HS00370322_M1 Taqman Probe, DUT: HS00798995_S1 Taqman Probe, TYMS: HS00426591_M1 Taqman Probe, UPP1: HS00427695—M1 Taqman Probe, RRM2: HS00357247_G1 Taqman Probe). The 2-^ΔΔCt method was used (Livak K J., Methods. 2001; 25:402-8) to calculate the relative expression of each gene.

[7] = test system: SW62 colon cancer cells; assay: as above; format: cell-based, human; design: key: DR (Down-regulation); UR (Up-regulation)
Protocol: as §3

[8] = test system: DLD-1 colon cancer cells; assay: as above; format: cell-based, human; design: key: DR (Down-regulation); UR (Up-regulation)
Protocol: as §3

[9] = test system: primary cultures of tumours of patients with NSCLC; assay: Primary cultures of NSCLC tumours, crystal violet quantification; format: cell-based, human; conditions: primary NSCLC tumour cultures, 0-20 μM, 10 days
Protocol: Resected tissues from NSCLC patients were dissociated (Cell dissociation sieve-tissued grinder Kit CD1, SIGMA), and the obtained cells were seeded in 24 well plates (BD, Falcon, Bioscience, San Jose, Calif., USA). […] The final persistent population in each well was quantified by the method of Cristal Violet as previously described (Rodríguez-González, A. et al., Oncogene, 22:8803-8812). […]

SMILES: CN(C)c1cc[n+](Cc2ccc(CCCCc3ccc(C[n+]4ccc(N(C)C)cc4)cc3)cc2)cc1 [MN58b, 1,4-(4-4′-Bis-((4-(dimethylamine)pyridinium-1-yl)methyl)diphenyl)butane dibromide]
- figure in parentheses after IC50 48 h (not defined; fold vs primary cells) [1]: 24
- figure in parentheses after IC50 72 h (not defined; fold vs primary cells) [1]: 27
- figure in parentheses after IC50 144 h (not defined; fold vs primary cells) [1]: 12
- figure in parentheses after IC50 48 h (not defined; fold vs primary cells) [2]: 41
- figure in parentheses after IC50 72 h (not defined; fold vs primary cells) [2]: 53
- figure in parentheses after IC50 144 h (not defined; fold vs primary cells) [2]: 27
- figure in parentheses after IC50 48 h (not defined; fold vs primary cells) [3]: 4
- figure in parentheses after IC50 72 h (not defined; fold vs primary cells) [3]: 8
- figure in parentheses after IC50 144 h (not defined; fold vs primary cells) [3]: 4
- DUT (Deoxyuridine triphosphatase) gene expression ([4]; H460, 9 h): −1.17
- RRM2 (Ribonucleotide Reductase) gene expression ([4]; H460, 9 h): −1.48
- TYMS (Thymidylate synthetase) gene expression ([4]; H460, 9 h): −1.30
- UPP1 (Uridine phosphorylase 1) gene expression ([4]; H460, 9 h): +1.54
- DUT (Deoxyuridine triphosphatase) gene expression ([4]; H460, 24 h): −2.03
- RRM2 (Ribonucleotide Reductase) gene expression ([4]; H460, 24 h): −2.50
- TYMS (Thymidylate synthetase) gene expression ([4]; H460, 24 h): −2.39
- UPP1 (Uridine phosphorylase 1) gene expression ([4]; H460, 24 h): +1.76
- Statistical significance (p), tumour growth [5]: 0.09
- DUT expression [6]: DR
- RRM expression [6]: DR
- TYM expression [6]: DR
- RRM expression [7]: DR
- TYM expression [7]: DR
- UPP expression [7]: UR
- TYM expression [8]: DR
- UPP expression [8]: UR
- RESISTANT (number of samples) [9]: 28
- SENSITIVES (number of samples) [9]: 35
